Test results published in ChEMBL document CHEMBL3046027, “In vitro and in vivo antifungal activity of synthetic pure isothiocyanates against Sclerotinia sclerotiorum” (Pest Manag Sci, 2011).

Experiments:
Sclerotinia sclerotiorum [1] = assay: In vivo antifungal Sclerotinia sclerotiorum in Pepper (Capsicum annuum L. cv. Sera Demre) assessed as inhibition of mycelial growth in volatile phase at 134 umol/L measured after 10 to 14 weeks; format: functional
Sclerotinia sclerotiorum [2] = assay: In vivo antifungal Sclerotinia sclerotiorum in Pepper (Capsicum annuum L. cv. Sera Demre) assessed as inhibition of mycelial growth in volatile phase at 67 umol/L measured after 10 to 14 weeks; format: functional
Sclerotinia sclerotiorum [3] = assay: Antifungal activity against Sclerotinia sclerotiorum assessed as inhibition of mycelial growth in volatile phase at 670 umol/l measured at 20 degC after 5 days; format: functional; conditions: 120 h, read-out: GI
Sclerotinia sclerotiorum [4] = assay: Antifungal activity against Sclerotinia sclerotiorum assessed as inhibition of mycelial growth in volatile phase at 469 umol/l measured at 20 degC after 5 days; format: functional; conditions: 120 h, read-out: GI
Sclerotinia sclerotiorum [5] = assay: Antifungal activity against Sclerotinia sclerotiorum assessed as inhibition of mycelial growth in volatile phase at 335 umol/l measured at 20 degC after 5 days; format: functional; conditions: 120 h, read-out: GI
Sclerotinia sclerotiorum [6] = assay: Antifungal activity against Sclerotinia sclerotiorum assessed as inhibition of mycelial growth in volatile phase at 67 umol/l measured at 20 degC after 5 days; format: functional; conditions: 120 h, read-out: GI
Sclerotinia sclerotiorum [7] = assay: Antifungal activity against Sclerotinia sclerotiorum assessed as inhibition of mycelial growth in volatile phase at 34 umol/l measured at 20 degC after 5 days; format: functional; conditions: 120 h, read-out: GI
Sclerotinia sclerotiorum [8] = assay: Antifungal activity against Sclerotinia sclerotiorum assessed as inhibition of mycelial growth in contact phase at 670 umol/l measured at 20 degC after 5 days; format: functional; conditions: 120 h, read-out: GI
Sclerotinia sclerotiorum [9] = assay: Antifungal activity against Sclerotinia sclerotiorum assessed as inhibition of mycelial growth in contact phase at 1340 umol/l measured at 20 degC after 5 days; format: functional; conditions: 120 h, read-out: GI
Sclerotinia sclerotiorum [10] = assay: Antifungal activity against Sclerotinia sclerotiorum assessed as inhibition of mycelial growth in contact phase at 603 umol/l measured at 20 degC after 5 days; format: functional; conditions: 120 h, read-out: GI
Sclerotinia sclerotiorum [11] = assay: Antifungal activity against Sclerotinia sclerotiorum assessed as inhibition of mycelial growth in contact phase at 469 umol/l measured at 20 degC after 5 days; format: functional; conditions: 120 h, read-out: GI
Sclerotinia sclerotiorum [12] = assay: Antifungal activity against Sclerotinia sclerotiorum assessed as inhibition of mycelial growth in contact phase at 2011 umol/l measured at 20 degC after 5 days; format: functional; conditions: 120 h, read-out: GI
Sclerotinia sclerotiorum [13] = assay: Fungistatic activity in Sclerotinia sclerotiorum assessed as inhibition of carpogenic germination in volatile phase at 670 umol/l measured at 20 degC after 5 days relative to control; format: functional; conditions: 120 h
Sclerotinia sclerotiorum [14] = assay: Fungistatic activity in Sclerotinia sclerotiorum assessed as inhibition of carpogenic germination in volatile phase at 335 umol/l measured at 20 degC after 5 days relative to control; format: functional; conditions: 120 h
Sclerotinia sclerotiorum [15] = assay: Fungistatic activity in Sclerotinia sclerotiorum assessed as inhibition of carpogenic germination in volatile phase at 67 umol/l measured at 20 degC after 5 days relative to control; format: functional; conditions: 120 h
Sclerotinia sclerotiorum [16] = assay: Fungistatic activity in Sclerotinia sclerotiorum assessed as inhibition of carpogenic germination in volatile phase at 34 umol/l measured at 20 degC after 5 days relative to control; format: functional; conditions: 120 h
Sclerotinia sclerotiorum [17] = assay: Fungistatic activity in Sclerotinia sclerotiorum assessed as sclerotial viability measured at 20 degC after 5 days; format: functional, organism-based; conditions: 120 h
Sclerotinia sclerotiorum [18] = assay: Fungistatic activity in Sclerotinia sclerotiorum assessed as inhibition of mycelial growth in volatile phase measured at 20 degC after 5 days; format: functional, organism-based; conditions: 120 h
Sclerotinia sclerotiorum [19] = assay: Fungistatic activity in Sclerotinia sclerotiorum assessed as inhibition of mycelial growth in contact phase measured at 20 degC after 5 days; format: functional, organism-based; conditions: 120 h
Sclerotinia sclerotiorum [20] = assay: Fungitoxic activity in Sclerotinia sclerotiorum assessed as viability in volatile phase at 670 umol/l measured at 20 degC after 5 days relative to control; format: functional; conditions: 120 h, read-out: GI
Sclerotinia sclerotiorum [21] = assay: Fungistatic activity in Sclerotinia sclerotiorum assessed as viability in volatile phase at 335 umol/l measured at 20 degC after 5 days relative to control; format: functional; conditions: 120 h, read-out: GI
Sclerotinia sclerotiorum [22] = assay: Fungistatic activity in Sclerotinia sclerotiorum assessed as inhibition of mycelial growth in contact phase at 2011 umol/l measured at 20 degC after 5 days relative to control; format: functional; conditions: 120 h, read-out: GI
Sclerotinia sclerotiorum [23] = assay: Fungitoxic activity in Sclerotinia sclerotiorum assessed as inhibition of mycelial growth in volatile phase at 469 umol/l measured at 20 degC after 5 days relative to control; format: functional; conditions: 120 h, read-out: GI
Sclerotinia sclerotiorum [24] = assay: Antifungal activity against Sclerotinia sclerotiorum assessed as inhibition of germination in volatile phase at 670 umol/l measured at 20 degC after 5 days; format: functional; conditions: 120 h
Sclerotinia sclerotiorum [25] = assay: Antifungal activity against Sclerotinia sclerotiorum assessed as inhibition of germination in volatile phase at 335 umol/l measured at 20 degC after 5 days; format: functional; conditions: 120 h
Sclerotinia sclerotiorum [26] = assay: Antifungal activity against Sclerotinia sclerotiorum assessed as inhibition of germination in volatile phase at 201 umol/l measured at 20 degC after 5 days; format: functional; conditions: 120 h
Sclerotinia sclerotiorum [27] = assay: Antifungal activity against Sclerotinia sclerotiorum assessed as inhibition of germination in volatile phase at 67 umol/l measured at 20 degC after 5 days; format: functional; conditions: 120 h
Sclerotinia sclerotiorum [28] = assay: Antifungal activity against Sclerotinia sclerotiorum assessed as inhibition of germination in volatile phase at 34 umol/l measured at 20 degC after 5 days; format: functional; conditions: 120 h

Question: What does the source list for `S=C=NCCc1ccccc1` [PHENETHYLISOTHIOCYANATE]?
Answer: inhibition in vivo at 134 µM (Sclerotinia sclerotiorum [1]): 76.7%; inhibition in vivo at 67 µM (Sclerotinia sclerotiorum [2]): 70%; inhibition of growth at 670 µM (Sclerotinia sclerotiorum [3]): 100%; inhibition of growth at 469 µM (Sclerotinia sclerotiorum [4]): 64%; inhibition of growth at 335 µM (Sclerotinia sclerotiorum [5]): 51.3%; inhibition of growth at 67 µM (Sclerotinia sclerotiorum [6]): 42.7%; inhibition of growth at 34 µM (Sclerotinia sclerotiorum [7]): 24.3%; inhibition of growth at 670 µM (Sclerotinia sclerotiorum [8]): 59.7%; inhibition of growth at 1340 µM (Sclerotinia sclerotiorum [9]): 92.5%; inhibition of growth at 603 µM (Sclerotinia sclerotiorum [10]): 24.3%; inhibition of growth at 469 µM (Sclerotinia sclerotiorum [11]): 5%; inhibition of growth at 2011 µM (Sclerotinia sclerotiorum [12]): 100%; inhibition at 670 µM (Sclerotinia sclerotiorum [13]): 82.5%; inhibition at 335 µM (Sclerotinia sclerotiorum [14]): 57.5%; inhibition at 67 µM (Sclerotinia sclerotiorum [15]): 55%; inhibition at 34 µM (Sclerotinia sclerotiorum [16]): 12.5%; EC50 (Sclerotinia sclerotiorum [17]): 114 µM; EC50 (Sclerotinia sclerotiorum [18]): 144 µM; EC50 (Sclerotinia sclerotiorum [19]): 650 µM; inhibition of growth at 670 µM (Sclerotinia sclerotiorum [20]): 100%; inhibition of growth at 335 µM (Sclerotinia sclerotiorum [21]): 100%; inhibition of growth at 2011 µM (Sclerotinia sclerotiorum [22]): 100%; inhibition of growth at 469 µM (Sclerotinia sclerotiorum [23]): 100%; inhibition at 670 µM (Sclerotinia sclerotiorum [24]): 100%; inhibition at 335 µM (Sclerotinia sclerotiorum [25]): 100%; inhibition at 201 µM (Sclerotinia sclerotiorum [26]): 66.7%; inhibition at 67 µM (Sclerotinia sclerotiorum [27]): 26.7%; inhibition at 34 µM (Sclerotinia sclerotiorum [28]): 6.7%
